# Measurements: patent US20250387324A1, “IN SITU FORMING IMPLANTS AND MICROPARTICLES FOR INTRAARTICULAR DRUG DELIVERY” (Mississippi State University, priority 2024, published 2025)
# Legend:
# [1] = system: IL-1β production by human THP-1 macrophages; assay: LPS-stimulated IL-1β production by THP-1 macrophages (ELISA); type: cell-based
# Source text: (§1) In addition to the inhibition of released collagenases, PCG is capable of suppressing the biosynthesis of inflammatory mediators that play important roles in the pathogenesis of OA. Such chondroprotective properties were investigated using THP-1 monocytes that had been differentiated into macrophages. THP-1 is a human leukemia monocytic cell line. THP-1 monocytes were expanded by suspension culture in RPMI 1640 medium supplemented with 10% FBS and 1% antibiotic-antimycotic solution. They were differentiated into macrophages by adding PMA to a final concentration of 20 nM and transferring them to monolayer culture for 72 h.^13 Inflammation was then induced by treatment with 1 μg/ml LPS. PCG was first dissolved at 5 mM in complete culture medium. One hour after LPS stimulation, cells were treated with PCG at final concentrations of 4, 20, 100, and 500 μM. Culture supernatant was collected 24 h later and IL-1β quantified using ELISA, with results expressed as a percentage of the unstimulated control.
# [2] = system: prostaglandin E2 (PGE2) production by human THP-1 macrophages; assay: LPS-stimulated PGE2 production by THP-1 macrophages (LC-MS/MS); type: cell-based
# Source text: as §1
# In addition to IL-1β, prostaglandin E2 (PGE2) in the culture supernatants was quantified using mass spectrometry. […] The residues were then reconstituted in 100 μL of methanol and analyzed by liquid chromatography with tandem mass spectrometry (LC-MS/MS), as previously described.^13
# type 2 collagenase = assay: Inhibition of collagenase-mediated cartilage degradation (pig cartilage disks, residual mass); type: biochemical
# Method: The stability of PCG within a PLGA implant was examined by determining the ability of released PCG to inhibit collagenase-mediated cartilage degradation. Pig stifle (knee) joints were obtained from a local meat processor and full-thickness, cylindrical disks of articular cartilage (5 mm diameter) were harvested from the distal femurs. The disks were freeze-dried, weighed, and placed in Dulbecco's Modified Eagle Medium (DMEM) containing 0.0025% type 2 collagenase with and without 100 μM PCG (n=12 disks per group). Samples were incubated at 37° C. under gentle orbital shaking. At 3, 6, 9, and 12 days of incubation, three disks from each group were rinsed in distilled water, freeze-dried and weighed again, while the rest were allowed to continue incubation after adding fresh collagenase. The same experiment was repeated using implants made with 20% PLGA (50:50), NMP/BB 90/10, and 0 or 32 mg PCG per gram total implant weight (n=12 per group). Implants were formed in microcentrifuge tubes by pipetting 100 μl of the solution into distilled water. One hour later the water was replaced by the collagenase solution. Custom 3D-printed baskets were used to suspend the cartilage disks in the collagenase just above the implants. Disks were collected and weighed at the same 3-day intervals, with replacement of the collagenase solution each time. PCG concentration in the spent collagenase solution was determined by measuring absorbance at 373 nm and comparing to a standard curve generated from serial dilutions of PCG dissolved directly into DMEM. For both experiments, data are reported as residual mass of cartilage (final weight/initial weight). The overall effect of PCG was analyzed by two-way ANOVA with treatment and time as factors. Statistically significant effects of PCG at each time point were determined by independent t-test (equal variances not assumed).
# [3] = Solvent screening for dissolving PCG; type: physicochemical
# Method: The present inventor has developed a suitable in situ forming implant for sustained delivery of PCG. Polycarbonate, poly(lactic acid), and poly(lactide-co-glycolide) (PLGA) were dissolved in various solvents and screened for combinations that could also dissolve punicalagin and release it gradually from an implant formed in situ. PLGA emerged as the polymer that offered the best opportunity for the tuning of PCG release kinetics. Systems composed of PLGA and PCG dissolved in N-methyl-2-pyrrolidone (NMP) and/or benzyl alcohol (BA) consistently formed solid or hydrogel implants. […] Thus, one aspect of this invention is the characterization of PLGA in situ forming implants (originating from solutions containing NMP, BA, and BB) with respect to PCG stability and release kinetics.
# [4] = system: adjuvant-induced arthritis; conditions: daily intraperitoneal doses, 50 mg/kg; cited from earlier work
# [5] = system: monoiodoacetate-induced model of OA; conditions: cited from earlier work
# [6] = 6% w/w PCG-containing diet for 37 days; cited from earlier work
# fibroblast synoviocytes = conditions: cited from earlier work
# [7] = system: murine monocyte/macrophage-like cells; conditions: dose-dependent; cited from earlier work
# [8] = system: RAW264.7 murine macrophages; conditions: cited from earlier work
# collagen type II = collagen type II (Homo sapiens, UniProt P02458); conditions: non-covalent; cited from earlier work
# collagenase = conditions: in vitro; cited from earlier work
# Sequence of collagen type II (P02458 182-1241 limits assumed): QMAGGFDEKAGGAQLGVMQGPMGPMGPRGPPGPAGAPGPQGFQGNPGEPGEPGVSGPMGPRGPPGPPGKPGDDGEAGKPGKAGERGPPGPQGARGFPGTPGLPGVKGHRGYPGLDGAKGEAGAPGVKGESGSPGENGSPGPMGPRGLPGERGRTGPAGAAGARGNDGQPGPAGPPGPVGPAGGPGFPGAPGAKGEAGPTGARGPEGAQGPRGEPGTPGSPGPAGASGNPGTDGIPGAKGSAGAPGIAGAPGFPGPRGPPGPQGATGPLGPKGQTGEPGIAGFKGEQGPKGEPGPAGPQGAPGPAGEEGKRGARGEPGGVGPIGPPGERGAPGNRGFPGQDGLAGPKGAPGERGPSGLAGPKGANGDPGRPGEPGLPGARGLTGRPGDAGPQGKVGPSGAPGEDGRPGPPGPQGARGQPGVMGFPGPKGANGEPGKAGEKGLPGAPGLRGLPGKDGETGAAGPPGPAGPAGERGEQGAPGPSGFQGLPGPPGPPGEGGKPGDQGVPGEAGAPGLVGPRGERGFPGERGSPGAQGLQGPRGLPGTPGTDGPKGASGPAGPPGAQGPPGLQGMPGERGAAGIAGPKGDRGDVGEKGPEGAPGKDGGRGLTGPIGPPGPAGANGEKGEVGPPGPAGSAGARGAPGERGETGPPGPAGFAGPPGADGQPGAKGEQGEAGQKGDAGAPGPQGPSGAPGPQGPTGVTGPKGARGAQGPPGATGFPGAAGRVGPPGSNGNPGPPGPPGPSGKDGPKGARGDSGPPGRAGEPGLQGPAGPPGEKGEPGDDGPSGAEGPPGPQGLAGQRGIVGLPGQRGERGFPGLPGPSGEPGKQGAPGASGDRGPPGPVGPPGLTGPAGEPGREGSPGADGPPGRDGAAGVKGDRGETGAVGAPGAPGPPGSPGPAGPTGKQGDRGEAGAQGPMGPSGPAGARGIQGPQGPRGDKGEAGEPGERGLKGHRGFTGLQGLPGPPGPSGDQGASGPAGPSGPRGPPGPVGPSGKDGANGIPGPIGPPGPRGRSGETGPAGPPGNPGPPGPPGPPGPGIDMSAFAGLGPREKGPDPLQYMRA
compound,measurement,setting,value
"O=C1O[C@H]2[C@@H]3OC(=O)c4cc(O)c(O)c(O)c4-c4c(O)c(O)c5oc(=O)c6c(c(O)c(O)c7oc(=O)c4c5c76)-c4c(cc(O)c(O)c4O)C(=O)OC[C@H]3OC(O)[C@@H]2OC(=O)c2cc(O)c(O)c(O)c2-c2c1cc(O)c(O)c2O (mixture of isomers) [PCG, punicalagin]",LPS-stimulated IL-1β production,"[1]; PCG 4 μM, added 1 h after 1 μg/ml LPS, supernatant at 24 h",return to the unstimulated control level
same,LPS-stimulated IL-1β production,[1]; PCG 20 μM and above,suppression of practically all IL-1β synthesis
same,attenuation of LPS-stimulated production of PGE2,[2]; PCG 500 μM,approximately 85%
same,decrease in PGE2 production,[2]; PCG in the range of 4-100 μM,about 35%
same,cartilage mass loss,"type 2 collagenase; 100 μM PCG added directly, 12 days, 0.0025% type 2 collagenase",about 55%
same,collagenase-mediated degradation of cartilage,type 2 collagenase; added directly to collagenase solution or released from an ISI,significantly inhibited
same,stability of PCG within PLGA ISI,type 2 collagenase; judged by collagenase inhibition of released PCG,at least 12 days
same,solubility of PCG in benzyl benzoate (BB),[3],did not dissolve
same,paw edema,[4],significantly reduced paw edema
same,systemic toxicity (histology of major organs),[5]; intraarticular PCG study,no evidence of systemic toxicity
same,erosion of cartilage compared to saline control,"[5]; semi-weekly intraarticular injections, 9.2 mM PCG solution",less overall erosion of cartilage
same,systemic toxicity,[6],no systemic toxicity
same,TNF-α induced expression of IL-1β,fibroblast synoviocytes,reduce
same,TNF-α induced expression of IL-6,fibroblast synoviocytes,reduce
same,TNF-α induced expression of MMP-13,fibroblast synoviocytes,reduce
same,lipopolysaccharide-stimulated production of IL-6,[7],suppressed
same,lipopolysaccharide-stimulated production of nitric oxide (NO),[7],suppressed
same,lipopolysaccharide-stimulated production of prostaglandin E2 (PGE2),[7],suppressed
same,LPS-induced production of IL-1β,[8],attenuated
same,LPS-induced production of PGE2,[8],attenuated
same,binding to collagen type II,collagen type II,high affinity
same,collagenase enzymatic activity,collagenase,inhibit its enzymatic activity
